Reference: patent publication US20220241207A1, “EXTENDED-RELEASE SOLID ORAL DOSAGE FORM COMPRISING VITAMIN B12 AND A VITAMIN B12 DEPLETING DRUG” (DSM IP ASSETS B.V., priority 2019, published 2022)

Procedure: The solubilization medium was: • SIF (simulated intestinal fluid, pH=6.8, prepared according to Ph. Eur.)
The dissolution medium was heated to 37° C. and the analyses were performed at this temperature. During the analyses, the salts were added in access to the solubilization media and left to mix for 24 h. Afterwards, the solutions were filtered, and the precipitates were investigated using ATR-IR analysis to confirm the presence of the starting material (e.g. respective Ca salt). Attenuated total reflection (ATR) is a sampling technique used in conjunction with infrared spectroscopy which enables samples to be examined directly in the solid or liquid state without further preparation. The filtered solutions were analysed for Ca^2+ ions content.

Ca^2+ ions average: 0.028 mg/mL | solubility average (pH 6.8): 0.09 mg/mL
Substance: dicalciumphosphat anhydrous [dicalcium phosphate anhydrous]
